Reference: patent US9138466B2, “Factor H for transplantation” (Baxter International Inc., priority 2013, dated 2015)
Several values for one entry are separate records, joined by “and”; a condition that tells them apart may be missing. Identical values can stand only once. Marks after values point to notes of the source that are not given here.

What was measured:
Assay type in all cases: in vivo
[1] = test system: collagen antibody-induced arthritis in Balb C mice; assay: Mouse CAIA, hind paw volume / footpad swelling (Example 4); parameters: Mean Disease Burden / Hind Limb Volume, Mean Diff. / Total Disease, Mean Diff.: unit not given here; details: for Total Footpad Thickness, Day of Study 8: day 8; for Total Footpad Thickness, Day of Study 11: day 11; for Total Footpad Thickness, Day of Study 12: day 12; for Total Footpad Thickness, Day of Study 13: day 13; for Total Footpad Thickness, Day of Study 15: day 15; for Total Footpad Thickness, Day of Study 19: day 19; for Total Footpad Thickness, Day of Study 22: day 22; for % Disease Suppression: footpad thickness AUC vs vehicle; for Total Disease Burden (AUC): footpad thickness days 8-22, in mL·day
[2] = test system: collagen antibody-induced arthritis in Balb C mice; assay: Mouse CAIA, clinical score (Example 4); parameters: key to Mean Maximum Clinical Score: scored 0 to 60, sum of 4 limbs
[3] = test system: collagen antibody-induced arthritis in Balb C mice; assay: Mouse CAIA, histopathology of hind limbs (ankle, H & E) (Example 4); details: for Composite Histopathaligy Score / Score From H & E, Bone Resorption / Score From H & E, Cartilage Damage / Score From H & E, Inflammation / Score From H & E, Pannus / Score From H & E, Periosteal Exostotic Changes: ankle; for Score From H & E, Bone Resorption / Score From H & E, Cartilage Damage / Score From H & E, Inflammation / Score From H & E, Pannus / Score From H & E, Periosteal Exostotic Changes: score 0 = normal to 5 = severe
[4] = Mouse CAIA, body weight and tolerability (Example 4)
Procedure: Balb C mice (n=10 per cohort) were used to determine the efficacy of Factor H (FH) during transplant rejection. The mice were treated with ArthritoMAb (anti-collagen) antibody cocktail (2 mg, i.v.) on day 1, followed 7 days later with an injection of LPS (50 μg, i.p.). On day 8, hind paw volumes were measured for each animal and distributed to various treatment groups.
Hind paw volumes were measured on day 8, 11, 12, 13, 15, 19 and 22 (endpoint). The age at start date was 7 to 9 weeks. Body weights were measured bi-weekly to the endpoint (Table 4). At the endpoint, tissue samples were processed for histology and submitted to a pathologist for independent analysis. Sampling 1 was performed at the endpoint. The hind limbs were preserved in 10% formalin. Sampling 2 was performed at the endpoint for group 4 animals. Blood was collected by terminal cardiac puncture. The blood was processed for anti-coagulant. The kidneys were additionally preserved in formalin and followed with 70% EtOH. Samples were scored for inflammation, pannus (granulation tissue), cartilage damage, bone resorption and exostosis (Table 5).

[5] = Dunnett's Multiple Comparison Test, G1 vehicle vs treatment
[6] = Dunnett's Multiple Comparison Test, vehicle vs treatment
[7] = Dunn's Multiple Comparison Test, G1 vehicle vs treatment
[8] = individual animal, listed as Group 3

Substance: Etanercept
- Mean Disease Burden ([1]; AUC of combined footpad volume over baseline, days 8 to 22, group mean, vehicle 1.93): 0.74**
- Total Disease, 95% CI of diff [1, 5]: 0.441 to 1.94
- Total Disease, Mean Diff. [1, 5]: 1.19
- Total Disease, Significant? P < 0.05? [1, 5]: Yes
- Total Disease, Summary [1, 5]: ** (**= P < 0.01)
- Total Disease, q [1, 5]: 3.9
- Hind Limb Volume, 95% CI of diff [1, 6]: 0.02587 to 0.1370
- Hind Limb Volume, Mean Diff. [1, 6]: 0.08143
- Hind Limb Volume, Significant? P < 0.05? [1, 6]: Yes
- Hind Limb Volume, Summary [1, 6]: ** (**= P < 0.01)
- Hind Limb Volume, q [1, 6]: 3.674
- Total Footpad Thickness, Day of Study 8 ([1]; group mean, n 10): 0.35 mL
- Total Footpad Thickness, Day of Study 8 ([1]; individual animals (A# 1-10)): 0.41 mL and 0.4 mL and 0.38 mL and 0.37 mL and 0.35 mL and 0.34 mL and 0.32 mL and 0.31 mL and 0.3 mL (2×)
- Total Footpad Thickness, Day of Study 11 ([1]; group mean, n 10): 0.44 mL
- Total Footpad Thickness, Day of Study 11 ([1]; individual animals (A# 1-10)): 0.49 mL and 0.44 mL (2×) and 0.37 mL and 0.38 mL and 0.39 mL and 0.4 mL (2×) and 0.45 mL and 0.41 mL
- Total Footpad Thickness, Day of Study 12 ([1]; group mean, n 10): 0.44 mL
- Total Footpad Thickness, Day of Study 12 ([1]; individual animals (A# 1-10)): 0.58 mL and 0.44 mL and 0.35 mL and 0.42 mL and 0.48 mL and 0.49 mL and 0.45 mL and 0.39 mL (2×) and 0.4 mL
- Total Footpad Thickness, Day of Study 13 ([1]; group mean, n 10): 0.42 mL
- Total Footpad Thickness, Day of Study 13 ([1]; individual animals (A# 1-10)): 0.58 mL and 0.41 mL (2×) and 0.36 mL and 0.33 mL and 0.49 mL and 0.39 mL and 0.35 mL and 0.43 mL and 0.4 mL
- Total Footpad Thickness, Day of Study 15 ([1]; group mean, n 10): 0.38 mL
- Total Footpad Thickness, Day of Study 15 ([1]; individual animals (A# 1-10)): 0.45 mL and 0.48 mL and 0.34 mL and 0.37 mL and 0.43 mL and 0.41 mL and 0.33 mL (2×) and 0.32 mL and 0.3 mL
- Total Footpad Thickness, Day of Study 19 ([1]; group mean, n 10): 0.42 mL
- Total Footpad Thickness, Day of Study 19 ([1]; individual animals (A# 1-10)): 0.61 mL and 0.43 mL and 0.4 mL and 0.47 mL (2×) and 0.32 mL and 0.42 mL and 0.35 mL and 0.33 mL and 0.38 mL
- Total Footpad Thickness, Day of Study 22 ([1]; group mean, n 10): 0.38 mL
- Total Footpad Thickness, Day of Study 22 ([1]; individual animals (A# 1-10)): 0.55 mL and 0.41 mL (2×) and 0.34 mL (2×) and 0.39 mL and 0.36 mL (3×) and 0.32 mL
- % Disease Suppression ([1]; group mean, n 10): 61.66%
- % Disease Suppression ([1]; individual animals (A# 1-10)): 16.3% and 74.3% and 109.8% and 83.9% and 52.3% and 49.7% and 69.4% and 70.2% and 29.0% and 63.7%
- Total Disease Burden (AUC) ([1]; group mean, n 10): 0.74
- Total Disease Burden (AUC) ([1]; individual animals (A# 1-10)): 1.62 and 0.56 and −0.19 and 0.35 and 0.92 and 0.97 and 0.59 and 0.58 and 1.37 and 0.70
- Maximum Δ Mean Volume ([1]; mean combined foot pad volume, day 8 vs median day of maximal swelling, vehicle 0.21): 0.13** ml
- % Disease Suppression (vs Vehicle) ([1]; percent decrease in total disease burden relative to vehicle): 61.7%
- Clinical Score, Difference in rank sum [2, 7]: 3.55
- Clinical Score, Significant? P < 0.05? [2, 7]: No
- Clinical score, Mean ([2]; day 8, group mean n=10): 5.50
- Clinical score ([2]; day 8, individual animal): 0 (5×) and 15 and 10 (4×)
- Clinical score, Mean ([2]; day 11, group mean n=10): 19.60
- Clinical score ([2]; day 11, individual animal): 12 (2×) and 34 and 28 and 4 and 15 and 43 and 11 and 10 and 27
- Clinical score, Mean ([2]; day 12, group mean n=10): 37.10
- Clinical score ([2]; day 12, individual animal): 32 and 50 (2×) and 45 and 27 and 35 and 26 and 20 and 34 and 52
- Clinical score, Mean ([2]; day 13, group mean n=10): 35.50
- Clinical score ([2]; day 13, individual animal): 32 and 50 and 45 (2×) and 21 and 35 and 30 and 15 and 34 and 48
- Clinical score, Mean ([2]; day 15, group mean n=10): 31.50
- Clinical score ([2]; day 15, individual animal): 32 and 49 and 21 and 48 and 25 and 45 and 15 and 10 and 24 and 46
- Clinical score, Mean ([2]; day 19, group mean n=10): 28.40
- Clinical score ([2]; day 19, individual animal): 32 and 48 and 34 and 25 and 5 and 45 and 20 and 10 and 26 and 37
- Clinical score, Mean ([2]; day 22, group mean n=10): 25.70
- Clinical score ([2]; day 22, individual animal): 32 and 41 and 34 and 18 (3×) and 40 and 10 and 23 and 26
- Day (of Max Clin Score), Mean ([2]; group line 'Mean', day of study): 12.00
- Max Clin Score, Mean ([2]; group mean n=10): 38.60
- Max Clin Score ([2]; individual animal): 32 and 50 (2×) and 45 and 48 and 35 and 30 and 20 and 34 and 52
- Day (of Max Clin Score) ([2]; individual animal, day of study): 12 (8×) and 22 and 16
- Mean Maximum Clinical Score ([2]; scored from 0 to 60, sum of 4 limbs, vehicle 45.4): 39.6^ns
- Cartilage, Difference in rank sum [3, 7]: −1.5
- Cartilage, Significant? P < 0.05? [3, 7]: No
- Composite, Difference in rank sum [3, 7]: 2.1
- Composite, Significant? P < 0.05? [3, 7]: No
- Exostosis, Difference in rank sum [3, 7]: 5.8
- Exostosis, Significant? P < 0.05? [3, 7]: No
- Inflammation, Difference in rank sum [3, 7]: 3.6
- Inflammation, Significant? P < 0.05? [3, 7]: No
- Pannus, Difference in rank sum [3, 7]: 0.3
- Pannus, Significant? P < 0.05? [3, 7]: No
- Composite Histopathaligy Score ([3]; group mean): 6.0 ± 2.1
- Score From H & E, Bone Resorption ([3]; group mean): 1.0 ± 0.4
- Score From H & E, Cartilage Damage ([3]; group mean): 0.7 ± 0.3
- Score From H & E, Inflammation ([3]; group mean): 1.5 ± 0.5
- Score From H & E, Pannus ([3]; group mean): 1.4 ± 0.5
- Score From H & E, Periosteal Exostotic Changes ([3]; group mean): 1.4 ± 0.8
- Score From H & E, Bone Resorption [3, 8]: 1 and 0 (6×) and 3 (3×)
- Score From H & E, Cartilage Damage [3, 8]: 1 (3×) and 0 (5×) and 2 (2×)
- Score From H & E, Inflammation [3, 8]: 1 (4×) and 3 (3×) and 0 (2×) and 2
- Score From H & E, Pannus [3, 8]: 1 and 0 (5×) and 4 (2×) and 2 (2×)
- Score From H & E, Periosteal Exostotic Changes [3, 8]: 4 and 0 (6×) and 1 and 3 (2×)
- Composite Histopathaligy Score [3, 8]: 11 (2×) and 0 (5×) and 16 and 15 and 1
- Bone Resorption ([3]; histopathology summary, graded 1-5, vehicle 0.6 ± 0.3): 1.0 ± 0.4^ns
- Pannus ([3]; histopathology summary, graded 1-5, vehicle 1.0 ± 0.3): 1.4 ± 0.5^ns
- Inflammation ([3]; histopathology summary, graded 1-5, vehicle 2.0 ± 0.5): 1.5 ± 0.5^ns
- Exostosis ([3]; histopathology summary, graded 1 to 5, vehicle 2.6 ± 0.5): 1.4 ± 0.6^ns
- Cartilage Damage ([3]; histopathology summary, vehicle 0.5 ± 0.2): 0.7 ± 0.3^ns
- Composite Score ([3]; histopathology summary, vehicle 6.7 ± 1.7): 6.0 ± 2.1^ns
- Body Weight, Wt (g), Mean ([4]; day 1, group mean n=10, before dosing start (day 8)): 17.3 g
- Body Weight, Wt ([4]; day 1, individual animal, before dosing start (day 8)): 16.7 g and 17.3 g and 16.5 g (2×) and 18 g (2×) and 17.7 g and 17.5 g and 16.8 g and 17.6 g
- Body Weight, Wt (g), Mean ([4]; day 5, group mean n=10, before dosing start (day 8)): 17.7 g
- Body Weight, Wt ([4]; day 5, individual animal, before dosing start (day 8)): 18.5 g (2×) and 17.4 g (2×) and 18.2 g and 16.6 g and 17.3 g and 17 g and 18.1 g and 18.3 g
- Body Weight, Wt (g), Mean ([4]; day 8, group mean n=10): 16.3 g
- Body Weight, Wt ([4]; day 8, individual animal): 16.5 g and 16.4 g (2×) and 16.1 g (2×) and 15.7 g (2×) and 16.2 g and 16.6 g and 17.1 g
- Body Weight, Wt (g), Mean ([4]; day 12, group mean n=10): 17 g
- Body Weight, Wt ([4]; day 12, individual animal): 16.6 g and 16.7 g (2×) and 17.8 g (2×) and 17.9 g and 15.5 g and 17.1 g and 17.7 g
- Body Weight, Wt (g), Mean ([4]; day 15, group mean n=10): 17.4 g
- Body Weight, Wt ([4]; day 15, individual animal): 17.1 g and 17.8 g and 17 g and 17.7 g and 16.6 g and 18 g (2×) and 17.9 g and 16.2 g and 17.6 g
- Body Weight, Wt (g), Mean ([4]; day 19, group mean n=10): 17.9 g
- Body Weight, Wt ([4]; day 19, individual animal): 18.3 g (2×) and 17.7 g and 18.4 g and 14.6 g and 18.8 g and 18.6 g (2×) and 16.5 g and 19.1 g
- Body Weight, Wt (g), Mean ([4]; day 22, group mean n=10): 18.1 g
- Body Weight, Wt ([4]; day 22, individual animal): 18.8 g and 18.3 g and 17.8 g and 18.7 g and 15.8 g and 18 g and 18.2 g and 17.3 g and 18.6 g and 19.6 g
- Mean Body Weigh at Nadir ([4]; lowest group mean body weight as % change from day 1, vehicle −8.0%): −5.7%
